“Also recorded” adds a separate entry of the source. No end group written: not given here.
Legend:
[1] = system: post-mitotic OC (primary rat OPC matured by PDGF withdrawal); test: Oligodendrocyte survival assay (calcein / ethidium homodimer live-dead count); assay type: cell-based
Experimental: Whether or not galanin itself is a survival factor for oligodendrocytes in vitro was determined. Primary rat OPC in culture were matured for 48 hours by PDGF withdrawal in the presence of insulin, passaged into poly-1-lysine coated 24 well-plates at a density of 200 cells/well in Sato medium alone or Sato medium supplemented with various concentrations of recombinant rat galanin (Peninsula Biosciences).
Twenty wells/condition were counted in each survival assay and results were verified in four independent experiments using separate batches of primary cells. All counts were performed by an investigator blinded to the experimental condition.

OC = test: Galanin immunocytochemistry of OC cultured in insulin +/- LIF; assay type: cell-based, rat; conditions: LIF-treated versus untreated OC, 48 hours
Experimental: (§1) Translation of regulated cytokine and neuropeptide mRNA species into peptides/proteins was confirmed. Mature oligodendrocytes (as above) were plated in 10 cm dishes in SATO plus insulin and added LIF (100 ng/ml) to half the dishes for 48 hours. […] LIF-dependent galanin production in concentrated media from the OC cell line CG4 (FIG. 11) was confirmed. […] All Western blots were performed in triplicate from independent experiments. The LIF-dependent induction of a secretory phenotype in OC was confirmed by galanin immunocytochemistry of OC cultured in insulin +/− LIF for 48 hours (FIG. 13).

EAE = conditions: cited from earlier work
cuprizone demyelination = conditions: exogenous LIF, wild-type litter mates; cited from earlier work
[2] = system: cultured primary rat astrocytes or an n-mye immortalized astrocytic cell line; test: Galanin production in response to LIF in astrocytes; assay type: cell-based
[3] = system: oligodendrocyte progenitors or mature oligodendrocytes; test: Real-time PCR confirmation of LIF-regulated genes in oligodendrocyte progenitors and mature oligodendrocytes; assay type: cell-based, rat; conditions: LIF for 5 or 24 hours
Experimental: For each of these six regulated genes, independent confirmation was conducted by real-time PCR. Either dividing oligodendrocyte progenitors or mature oligodendrocytes (as above) were exposed to LIF for either 5 or 24 hours, and measured gene induction against baseline (independent baseline cultures for each comparison). […] FIG. 10 illustrates typical results for secretogranin 2 and galanin.

mature oligodendrocytes = test: Western blot of galanin in concentrated media of mature oligodendrocytes; assay type: cell-based, rat; conditions: LIF 100 ng/ml, 48 hours, SATO plus insulin
Experimental: as §1

[4] = system: cultured primary oligodendrocytes; test: Affymetrix gene chip analysis of LIF-induced mRNA in cultured primary oligodendrocytes; assay type: cell-based, rat; conditions: 8 hours of LIF exposure, versus NT3, insulin or Sato only
Experimental: In order to assess mRNA induction promoted by LIF signaling in oligodendrocytes, an Affymetrix array analysis was conducted of cultured primary oligodendrocytes. A2B5 positive, O1 negative oligodendrocyte progenitor cells were isolated by sequential immunopanning from P6 rat optic nerves. After expansion in culture (2 passages, 11 days) in Sato medium in the presence of insulin, platelet-derived growth factor (PDGF) and neurotrophin-3 (NT3) (no CNTF or LIF), the cells were matured by 48 hours of PDGF withdrawal. The NT3 was also withdrawn for this time-period but insulin was maintained. In order to determine gene expression profiles induced by various cytokines, the matured cells were then exposed to one of four conditions for 8 hours: Sato alone, Sato plus insulin, Sato plus LIF, Sato plus NT3. Subsequently, the cells were harvested, mRNA isolated and processed for Affymetrix gene chip hybridization (Rat 230 2.0). The experiments were conducted as independent triplicates. […] The 965 genes identified were subjected to cluster analysis. Distinct clusters of genes were regulated by insulin and LIF (FIG. 9) but not NT-3.

Substance | OC survival in vitro ([1]; 1 nM galanin in Sato medium, versus Sato alone (nil)) | OC survival, galanin plus LIF versus galanin alone (synergy) ([1]; Sato medium) | OC survival in vitro ([1]; higher galanin concentrations (other than 1 nM), versus baseline (nil)) | galanin staining of OC (OC) | reduction in density of oligodendrocytes within the spinal cord in established EAE (EAE; MBP-lacZ mice, LIF administration) | EAE severity (EAE; recombinant LIF administration) | severity of demyelination (cuprizone demyelination) | induction of galanin production [2] | gene induction against baseline at the RNA level (six genes incl. secretogranin 2 and galanin) [3] | galanin production in concentrated media (mature oligodendrocytes) | regulation of genes (secretogranin II, cytokines/neuropeptides incl. galanin) on gene chip [4]
galanin (GWTLNSAGYLLGPHAIDNHRSFSDKHGLT; ends and bridges not checked; UniProt P10683 33-61, looked up) [29 amino acid neuropeptide; recombinant rat galanin (Peninsula Biosciences) used in the survival assay] | highly significant survival effect; also recorded: increased | not synergistic with LIF | abolished; also recorded: No other galanin concentration is significantly different from baseline | – | – | – | – | – | – | – | –
leukemia inhibitory factor [LIF] | – | – | – | intense polar galanin staining | fully rescued this phenotype | reduces EAE severity | reduce the severity of demyelination | not observed | confirmed to be regulated | Induction of galanin production was observed | significantly regulated
